Assays:
[1] = test system: undifferentiated human iPS cells; test: Oxygen consumption (OCR) with XF96 Extracellular Flux Analyzer; format: cell-based; conditions: CL316,243 100 nM or isoproterenol 100 μM, 4 hours (FIG. 12B left)
[2] = test system: white adipocytes produced from human mesenchymal stem cells (MSCs); test: as above; format: cell-based; conditions: CL316,243 100 nM or isoproterenol 100 μM, 4 hours (FIG. 12C)
[3] = test system: undifferentiated human ES cells; test: as above; format: cell-based; conditions: CL316,243 100 nM or isoproterenol 100 μM, 4 hours (FIG. 12A left)
[4] = test system: brown adipocytes derived from human ES cells; test: as above; format: cell-based; conditions: CL316,243 100 nM or isoproterenol 100 μM, 4 hours (FIG. 12A right)
Description: (§1) Brown adipocytes were differentiated from KhES-3 and SeV-iPS cell lines in accordance with the method described in Example 5. Here, the adhesion culture in the step (B) for differentiation induction was carried out using a 96-well plate for exclusive use in XF96 Extracellular Flux Analyzer (Seahorse Bioscience Inc., Billerica, Mass.) after coating with 0.1% gelatin. The cell aggregates were seeded at an amount of 30 cell aggregates per well. The cell aggregates seeded in the 96-well plate were incubated in a 5% CO2 incubator at 37° C. for 2 days. Subsequently, isoproterenol (100 μM) or CL316,243 (100 nM) was added to a half of the wells, and incubation was further carried out in a 5% CO2 incubator at 37° C. for 4 hours, followed by measurement of oxygen consumption (OCR) per minute with XF96 Extracellular Flux Analyzer (Seahorse Bioscience Inc., Billerica, Mass.).

[5] = test system: brown adipocytes derived from human iPS cells; test: as above; format: cell-based; conditions: CL316,243 100 nM or isoproterenol 100 μM, 4 hours (FIG. 12B right)
Description: as §1

[6] = test system: 10-week old mice (male, ICR strain); test: Relief of 5-fluorouracil-induced myelosuppression in mice, bone marrow cell count; format: in vivo, mouse; conditions: 5-FU 100 mg/kg; isoproterenol 30 μmol/kg on 3 to 6 days after; vs saline; P=0.032 (FIG. 16F)
Description: Furthermore, whether or not a brown adipocyte stimulant has an effect of relieving a severe side effect of anticancer drug administration, myelosuppression, was investigated. Specifically, an anticancer drug, 5-fluorouracil (5-FU), was administered to 10-week old mice (male, ICR strain) at a dose of 100 mg/kg. Isoproterenol (30 μmol/kg) or saline was administered to the mice on 3 to 6 days after the administration, and bone marrow cells were collected from the thighbone over time and were counted.

[7] = test system: brown adipocytes produced from KhES-3 cell line and SeV-iPS cell line; test: RT-PCR of PRDM16 and UCP1 gene expression after addition of adrenaline receptor agonist; format: cell-based, human; conditions: 100 μM, 4 hours, RT-PCR (FIG. 10)
Description: Brown adipocytes were produced from KhES-3 cell line and SeV-iPS cell line in accordance with the method described in Example 5 and were reacted with 100 μM of an adrenaline receptor agonist, isoproterenol, for 4 hours. In order to evaluate the activation of the brown adipocytes by the addition of the adrenaline receptor agonist, the expressions of the PRDM16 and UCP1 genes were investigated by RT-PCR.

[8] = test system: human ES cell-derived brown adipocytes; test: Influence of brown adipocyte stimulant on hematopoietic cytokine expression levels; format: cell-based; conditions: treatment with isoproterenol (FIG. 16E)

| SMILES | OCR value [1] | OCR value [2] | OCR value [3] | OCR value [4] | OCR value [5] | number of bone marrow cells on the 7th day from the 5-FU administration [6] | expression of the PRDM16 gene [7] | expression of the UCP1 gene [7] | expression levels of cytokines (TPO, IL6, IL3, G-CSF, GM-CSF, EPO) [8] |
| --- | --- | --- | --- | --- | --- | --- | --- | --- | --- |
| C[C@H](Cc1ccc2c(c1)OC(C(=O)[O-])(C(=O)[O-])O2)NC[C@H](O)c1cccc(Cl)c1.[Na+].[Na+] [CL316,243] | no change | no change | no change | significant increase | significant increase | – | – | – | – |
| CC(C)NCC(O)c1ccc(O)c(O)c1 (stereo not drawn) [isoproterenol] | – | – | – | – | – | significantly increased | increase | increase | increased |
